The record followed here is patent publication US20230364012A1, “STABLE OPHTHALMIC COMPOSITION OF LOTEPREDNOL” (MANKIND PHARMA LTD., priority 2022, published 2023).

A short description of the data set: Particle size of the compositions, tested initially, after 15 days and one month (stability studies). The class given is physicochemical. The conditions noted are these: Initial. The procedure:
The particle size of the compositions of the invention were tested initially, after 15 days and one month. The compositions of the invention were then observed and tested for particle aggregation, settling, and flocculation on long term storage. The observations at one month, three months, 6 months, 9 months are as follows: […]

As for `CCOC(=O)O[C@]1(C(=O)OCCl)CC[C@H]2[C@@H]3CCC4=CC(=O)C=C[C@]4(C)[C@H]3[C@@H](O)C[C@@]21C` [API, Loteprednol etabonate], the Particle size D10 worked out at 1 µm, the Particle size D50 stood at 3.3 µm and the Particle size D90 was 9.1 µm.
